Common to all, as to assay type: cell-based
Experiment [1] deals with T1, Nuclear factor erythroid 2-related factor 2 (Mus musculus) (UniProt Q60795).
T1 sequence (whole entry): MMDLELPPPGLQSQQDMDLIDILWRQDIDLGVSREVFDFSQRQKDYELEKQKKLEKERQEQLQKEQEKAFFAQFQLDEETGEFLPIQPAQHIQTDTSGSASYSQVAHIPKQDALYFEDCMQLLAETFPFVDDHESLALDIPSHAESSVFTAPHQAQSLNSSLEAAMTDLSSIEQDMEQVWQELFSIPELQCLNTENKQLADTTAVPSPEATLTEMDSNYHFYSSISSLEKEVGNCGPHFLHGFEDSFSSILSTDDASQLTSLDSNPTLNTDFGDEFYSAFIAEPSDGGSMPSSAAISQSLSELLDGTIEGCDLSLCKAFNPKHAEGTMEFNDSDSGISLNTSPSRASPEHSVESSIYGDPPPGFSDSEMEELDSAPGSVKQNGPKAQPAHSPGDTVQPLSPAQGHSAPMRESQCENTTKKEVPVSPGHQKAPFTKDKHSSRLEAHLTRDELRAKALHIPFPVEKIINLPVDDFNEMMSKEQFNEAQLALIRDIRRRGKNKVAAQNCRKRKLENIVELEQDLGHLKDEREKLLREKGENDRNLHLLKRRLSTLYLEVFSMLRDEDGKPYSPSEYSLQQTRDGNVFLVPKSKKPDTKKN
The experiment is described as follows: Activation of NRF2 in mouse MLE12 cells assessed as induction of NQO1 expression at 10 uM incubated for 6 hrs by immunoblot assay. On the technique in general: A western blot detects proteins with antibodies after separation by electrophoresis.

The target of experiment [2] is T1, Nuclear factor erythroid 2-related factor 2 (Mus musculus). Kind of experiment: Activation of NRF2 in mouse MLE12 cells assessed as induction of HMOX1 expression at 10 uM incubated for 6 hrs by immunoblot assay.
Experiment [3] shares this target. Kind of experiment: Activation of NRF2 in mouse MLE12 cells assessed as increase in NRF2 level at 10 uM incubated for 6 hrs by immunoblot assay.

Active and inactive are the calls of the source. The rule behind the calls is not given here.

On to `COc1ccc(S(=O)(=O)Nc2ccc(N(CC(=O)O)S(=O)(=O)c3ccc(OC)cc3)c3ccccc23)cc1`, for which the result in experiment [1] and in experiment [2] was inactive.
For `COc1ccc(S(=O)(=O)N(CC(=O)O)c2ccc(N(CC(=O)O)S(=O)(=O)c3ccc(OC)cc3)c3ccccc23)cc1`, the result in experiment [2] and in experiment [3] was Active.
With `CCOC(=O)CN(c1ccc(NS(=O)(=O)c2ccc(OC)cc2)c2ccccc12)S(=O)(=O)c1ccc(OC)cc1`, the outcome in experiment [2] and in experiment [3] was Active.
As to `COc1ccc(S(=O)(=O)Nc2ccc(NS(=O)(=O)c3ccc(OC)cc3)c3ccccc23)cc1`, the result in experiment [2] and in experiment [3] was Active.

These data come from ChEMBL document CHEMBL3632561, “Probing the structural requirements of non-electrophilic naphthalene-based Nrf2 activators” (Eur J Med Chem, 2015).
